Tests used:
Type in all cases: cell-based, human
[1] = test system: CD34+ cells from cord blood; experiment: HSC Expansion Culture, 14 and 21 days (Example 41)
Experimental: CD34+ cells from cord blood were purchased from STEMCELL Technologies.
Primary human CD34+ cells were isolated by the supplier from cord blood samples using positive immunomagnetic separation techniques. Cells from two separate samples of cord blood were thawed, gradually brought to room temperature, then washed.
For both samples, cells were primed with an overnight culture in StemSpan with 100 ng/ml each of FLT3L, TPO, SCF, and IL-6. Eighteen hours later (day 1), cells were counted and immunophenotyped (flow cytometry on an Invitrogen Attune N×T cytometer).
The remainder of cells from both samples were placed into “HSC Expansion Culture” for either 14 days (“14-day expansion”) or 21 days (“21-day expansion”). Numbers of cells placed into HSC Expansion Culture were quantified for “Fold Expansion” calculations described below. […]
During Expansion Culture, portions of cells were passaged to one or more larger flasks (75 cm^2 or 225 cm^2) if density of cells was greater than ≥1e5 cells/ml. […] Numbers of cells seeded were recorded for “Fold Expansion” calculations, described below.
Following 21 days in Expansion Culture, a sample was taken from the 21-day expansion flask for counting and analysis of phenotypes (flow cytometry on an Invitrogen Attune N×T cytometer). […] CD34 purity was verified by flow cytometry and counts were recorded for calculation of Per-Assayed-CD34+ Cell Output, described below. […]

[2] = test system: CD15+/CD14− cells; experiment: Respiratory burst assay, dihydrorhodamine-123 / PMA (Example 39); settings: Formula I-expanded Differentiation Cultures, day 13; 200 nM PMA 30 minutes
Experimental: On day 13 of Granulocyte Differentiation Culture, a portion of the culture was removed for in vitro analysis of granulocyte function through two separate assays for phagocytosis and respiratory burst.
In the respiratory burst assay, the ability of cells to generate reactive oxygen species (used to kill ingested bacteria) was measured. Cells were first pulsed for 15 minutes with dihydrorhodamine-123, a reagent that fluoresces only after it has been oxidized to rhodamine 123. Following this incubation, cells were treated for 30 minutes with 200 nM phorbol 12-myristate 13-acetate (PMA) to non-specifically activate the respiratory burst. Control samples without PMA were also prepared. Following this incubation, cells were stained with antibodies to CD15 and CD14, washed thoroughly, then analyzed via flow cytometry on an Attune flow cytometer. CD15+/CD14− cells were quantified for rhodamine 123 fluorescence, indicating activation of oxidative burst.

[3] = test system: CD15+/CD14− cells; experiment: Phagocytosis assay with pHrodo green Staphylococcus aureus Bioparticles (Example 39); settings: +Formula I Granulocyte Differentiation Cultures, day 13; 45 minutes at 37° C.
Experimental: On day 13 of Granulocyte Differentiation Culture, a portion of the culture was removed for in vitro analysis of granulocyte function through two separate assays for phagocytosis and respiratory burst. In the phagocytosis assay, the function of the cultured cells in ingesting bacteria was measured. pHrodo green Staphylococcus aureus Bioparticles (ThermoFisher), which fluoresce only when in an acidic environment such as a cellular phagosome following phagocytosis, were first treated with an opsonizing reagent to mark the particles for phagocytosis. The particles were then added to cells and incubated at 37° C. for 45 minutes. “Ice” control samples were incubated on ice during this period to prevent endocytosis and enable a measure of background fluorescence. Following this incubation, cells were stained with antibodies to CD15 and CD14, washed thoroughly, then analyzed via flow cytometry on an Attune flow cytometer. CD15+/CD14− cells were quantified for presence of phagocytosed particles.

## CC(C)(C)C(=O)Nc1ccc2c(c1)C(O)c1ccccc1-2 (stereo not shown) [Compound 1.010]
[1]; +Formula I Condition (Compound 1.010 8 μM), 14 days
  fold expansion of CD34+ cells: 35 fold
[1]; +Formula I Condition, 21-day expansion
  fold expansion of CD34+ cells: 245 fold
[2]
  cells that activated respiratory burst when stimulated with PMA: 56%
[3]
  CD15+ cells positive for phagocytosed particles: 89%

Reference: patent US20220315895A1, “METHODS OF MAKING OLIGOPOTENT AND UNIPOTENT PRECURSORS” (Transfusion Health, LLC, priority 2019, published 2022)
